Measured values taken from patent publication US20240158446A1, “CYCLIC COMPOUND HAVING SELECTIVE INHIBITORY ACTION ON KRAS OVER HRAS AND NRAS” (CHUGAI SEIYAKU KABUSHIKI KAISHA, priority 2021, published 2024).

Key:
[1] = target: GDP-bound HRAS wild-type protein (Homo sapiens, UniProt P01112); assay: Binding to HRAS by surface plasmon resonance (SPR), Single Cycle Kinetics; conditions: SPR, GDP-bound HRAS wild-type protein vs GDP-bound KRAS wild-type protein
[2] = target: GDP-bound NRAS wild-type protein (Homo sapiens, UniProt P01111); assay: Binding to NRAS by surface plasmon resonance (SPR), Single Cycle Kinetics; conditions: SPR, GDP-bound NRAS wild-type protein vs GDP-bound KRAS wild-type protein
Chain of GDP-bound NRAS wild-type protein (P01111 whole entry): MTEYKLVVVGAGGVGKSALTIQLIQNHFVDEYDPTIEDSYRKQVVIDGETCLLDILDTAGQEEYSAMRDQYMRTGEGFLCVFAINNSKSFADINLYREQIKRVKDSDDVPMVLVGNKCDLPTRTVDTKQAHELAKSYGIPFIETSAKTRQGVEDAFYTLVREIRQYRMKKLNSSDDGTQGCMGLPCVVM

[3] = target: GDP-bound KRAS wild-type protein (Homo sapiens, UniProt P01116); assay: Binding to KRAS by surface plasmon resonance (SPR), Single Cycle Kinetics; conditions: SPR, Single Cycle Kinetics, GDP-bound KRAS wild-type protein; read-out: KRAS KD
Chain of GDP-bound KRAS wild-type protein (P01116 whole entry): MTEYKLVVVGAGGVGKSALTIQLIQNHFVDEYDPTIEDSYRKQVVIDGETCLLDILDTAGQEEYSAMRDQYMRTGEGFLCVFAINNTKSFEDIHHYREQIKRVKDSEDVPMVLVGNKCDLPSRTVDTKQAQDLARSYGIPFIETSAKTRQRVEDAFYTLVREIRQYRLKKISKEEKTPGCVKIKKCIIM

Chain of GDP-bound HRAS wild-type protein (P01112 whole entry): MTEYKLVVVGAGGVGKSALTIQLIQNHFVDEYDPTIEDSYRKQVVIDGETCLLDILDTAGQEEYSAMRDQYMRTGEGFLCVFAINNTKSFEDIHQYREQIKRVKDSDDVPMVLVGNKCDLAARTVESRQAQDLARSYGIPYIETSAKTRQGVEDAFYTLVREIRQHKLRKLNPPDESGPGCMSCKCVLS

SMILES	Kd [3] [pM]	HRAS/KRAS (ratio of KD value for HRAS to KD value for KRAS) [1]	NRAS/KRAS (ratio of KD value for NRAS to KD value for KRAS) [2]
CCO[C@@H]1C[C@H]2C(=O)NC3(CC=CC3)C(=O)N(C)[C@@H](C3CCCC3)C(=O)N(C)[C@H](C(=O)N3CCOCC3)CC(=O)N(C)[C@@H](COC)C(=O)N[C@@H]([C@@H](C)CC)C(=O)N(C)CC(=O)N(C)[C@H]3CCCCCN(C3=O)[C@@H](Cc3ccc(C(F)(F)F)cc3)C(=O)N(C)CC(=O)N[C@@H](CCc3cc(F)c(C(F)(F)F)c(F)c3)C(=O)N2C1 [PP0842]	600	B (a compound having 3 or more and less than 10 is denoted as B)	B (a compound having 3 or more and less than 10 is denoted as B)
CCO[C@@H]1C[C@H]2C(=O)NC3(CC(F)(F)C3)C(=O)N(C)[C@@H](C3CCCC3)C(=O)N(C)[C@H](C(=O)N3CCOCC3)CC(=O)N(C)[C@@H](COC)C(=O)N[C@@H]([C@@H](C)CC)C(=O)N(C)CC(=O)N(C)[C@H]3CCCCCN(C3=O)[C@@H](Cc3ccc(C(F)(F)F)cc3)C(=O)N(C)CC(=O)N[C@@H](CCc3cc(F)c(C(F)(F)F)c(F)c3)C(=O)N2C1 [PP0843]	520	B (a compound having 3 or more and less than 10 is denoted as B)	B (a compound having 3 or more and less than 10 is denoted as B)
CCO[C@@H]1C[C@H]2C(=O)NC3(CC(C)(C)C3)C(=O)N(C)[C@@H](C3CCCC3)C(=O)N(C)[C@H](C(=O)N3CCOCC3)CC(=O)N(C)[C@@H](COC)C(=O)N[C@@H]([C@@H](C)CC)C(=O)N(C)CC(=O)N(C)[C@H]3CCCCCN(C3=O)[C@@H](Cc3ccc(C(F)(F)F)cc3)C(=O)N(C)CC(=O)N[C@@H](CCc3cc(F)c(C(F)(F)F)c(F)c3)C(=O)N2C1 [PP0844]	1200	B (a compound having 3 or more and less than 10 is denoted as B)	B (a compound having 3 or more and less than 10 is denoted as B)
CC[C@H](C)[C@@H]1NC(=O)[C@H](COC)N(C)C(=O)C[C@@H](C(=O)N2CCOCC2)N(C)C(=O)[C@H](C2CCCC2)N(C)C(=O)C2(CCCC2)NC(=O)[C@@H]2CCCN2C(=O)[C@H](CCc2cc(F)c(C(F)(F)F)c(F)c2)NC(=O)CN(C)C(=O)[C@H](Cc2ccc(C(F)(F)F)cc2)N2CCCCC[C@@H](C2=O)N(C)C(=O)CN(C)C1=O [PP0845]	2200	B (a compound having 3 or more and less than 10 is denoted as B)	B (a compound having 3 or more and less than 10 is denoted as B)

Further lines, with some results ahead:

Kd [3] [pM]	SMILES	HRAS/KRAS (ratio of KD value for HRAS to KD value for KRAS) [1]	NRAS/KRAS (ratio of KD value for NRAS to KD value for KRAS) [2]
990	CC[C@H](C)[C@@H]1NC(=O)[C@H](COC)N(C)C(=O)C[C@@H](C(=O)N2CCOCC2)N(C)C(=O)[C@H](C2CCCC2)N(C)C(=O)C2(CCCC2)NC(=O)[C@@H]2CC(F)(F)CN2C(=O)[C@H](CCc2cc(F)c(C(F)(F)F)c(F)c2)NC(=O)CN(C)C(=O)[C@H](Cc2ccc(C(F)(F)F)cc2)N2CCCCC[C@@H](C2=O)N(C)C(=O)CN(C)C1=O [PP0846]	B (a compound having 3 or more and less than 10 is denoted as B)	B (a compound having 3 or more and less than 10 is denoted as B)
280	CC[C@H](C)[C@@H]1NC(=O)[C@H](COC)N(C)C(=O)C[C@@H](C(=O)N2CCOCC2)N(C)C(=O)[C@H](C2CCCC2)N(C)C(=O)C2(CCCC2)NC(=O)[C@@H]2C[C@H](O)CN2C(=O)[C@H](CCc2cc(F)c(C(F)(F)F)c(F)c2)NC(=O)CN(C)C(=O)[C@H](Cc2ccc(C(F)(F)F)cc2)N2CCCCC[C@@H](C2=O)N(C)C(=O)CN(C)C1=O [PP0847]	B (a compound having 3 or more and less than 10 is denoted as B)	B (a compound having 3 or more and less than 10 is denoted as B)
